From patent US20260265694A1, “USE OF A VITISIN COMPOUND FOR THE PRODUCTION OF HEMATOPOIETIC CELLS” (ETABLISSEMENT FRANCAIS DU SANG, priority 2022, published 2026)

Key:
Format in all cases: cell-based, human
[1] = system: peripheral blood CD34+ cells; test: ERYTHRO 2 PROTOCOL: three-phase erythrocyte differentiation; conditions: peripheral blood CD34+ cells in homeostasis, 10 μM
Excerpt: (§1) This protocol was applied to CD34^+ cells. Phase 1 of this protocol was in particular applied to BFU-E cells. This protocol was adapted from Vlaski et al. (Experimental Hematology 2009; 37:573-584).
(§2) The ex vivo erythrocyte production was established on a 28-day cell culture and involves three phases, namely 1) amplification of primitive erythrocyte progenitors, then 2) differentiation of said progenitors into erythrocyte precursors, and finally 3) the terminal stage of maturation with cell enucleation and development of mature erythrocytes.
(§3) i. Detailed Description of the Three Phases of the Protocol • Phase I of the protocol starts on DO with the seeding of 10^4 cells/mL in 5 mL of supplemented IMDM medium as defined below (see section ii). On day 4, dilution of the culture is performed by recovering 3 mL, which is replaced with the same volume of fresh medium. […] From day 11 to the end of the process, the cells are placed on a layer of mesenchymal stromal cells (MSCs) (coculture), allowing terminal maturation into functional enucleated cells by virtue of the contact between stromal cells and erythrocyte precursors. Suspended erythrocyte cells are seeded at a concentration of 3×10^5/ml and co-cultured from day 11 to day 15 in fresh medium with cytokines (SCF, IL-3, EPO and HC) and 5% fetal calf serum (FCS) required for MSCs. On day 15, the suspended erythrocyte cells are removed from culture, washed, then reseeded onto a new adherent layer of MSCs and cultured for a further four days in 2 mL of fresh medium containing only EPO. • Phase III of the protocol begins on day 19. At this stage, the cells complete their maturation by the enucleation of orthochromatic erythroblasts to form reticulocytes, leading to the formation of erythrocytes. On day 19, the cells are washed and spread on a new layer of MSCs in 2 mL of fresh cytokine-free medium. On day 23, the cultures are fed with fresh medium until day 28, corresponding to the last day of culture in the erythropoiesis protocol. ii. Description of the Culture Medium
(§4) The cells are incubated in Iscove's Modified Dulbecco Medium (IMDM_PAN BIOTECH) supplemented with various reagents to obtain a medium promoting the growth of cells committed to the erythrocyte lineage, namely: • L-Glutamine (4 mM), • Streptomycin and penicillin (1%), • Inositol (40 μg/mL), • Folic acid (10 μg/mL), • Mono-thioglycerol (1.6×10^−4 M), • Transferrin (120 μg/mL), • Insulin (10 μg/mL), N • Iron nitrate (90 ng/mL), • Iron sulfate (900 ng/mL) • Human serum albumin (10 mg/ml).
(§5) After preparation of the culture medium, cytokines are added extemporaneously to the culture medium: • Stem Cell Factor (SCF) at 100 ng/mL, • Interleukin-3 (IL-3) at 5 ng/mL, • Erythropoietin (EPO) at 3 IU/mL, • Hydrocortisone (HC) at 10^−6 M. The CD34^+ cells are incubated at 20% O2 and 5% CO2 at 37° C. for 28 days. iii. Description of the Culture Conditions Applied In order to test the effect of vitisin B in this context, various conditions were defined.
(§6) • CTRL condition: Absence of vitisin B throughout the entire protocol. • Condition I: Presence of vitisin B (10 μM) during phase I of the protocol. • […]: Presence of vitisin B (10 μM) during phases I and II of the protocol. • Condition III: Presence of vitisin B (10 μM) during the three phases of the protocol.
(§7) Analyses are performed on cells from each condition. The differentiation and maturation of erythrocyte cells are monitored by quantifying progenitors, analyzing the expression of GPA and CD71 markers, and also by morphological analysis.
(§8) During and at the end of the various erythrocyte differentiation protocols, cell proliferation and cell differentiation are analyzed. Cell proliferation is evaluated by counting of cells on Malassez slides, with Trypan blue exclusion of dead cells. […]

[2] = system: placental blood CD34+ cells; test: as above
Excerpt: as §1, §2, §3, §4, §5, §6, §7, §8

[3] = system: BFU-E and CFU-E erythrocyte progenitors from placental blood CD34+ cells; test: CFC clonogenic assay of BFU-E and CFU-E during phase 1 of ERYTHRO 2; conditions: 10 μM
Experimental: • CTRL condition: cells are cultured for 7 days in the absence of vitisin B. • TEST condition: cells are cultured for 7 days in the presence of vitisin B at 10 μM.
To this end, the CFC (Colony Forming Cells) test is used. Committed progenitors are capable of generating colonies after culture in a semisolid medium composed of methylcellulose and supplemented with cytokines. Thus, committed progenitors (here BFU-Es and CFU-Es) produced during erythrocyte cultures can be counted.
This analysis of BFU-E and CFU-E production was performed only during phase 1 of PROTOCOL 2. Cells grown and harvested on days 4, 8 and 11 of phase 1 were seeded in a ready-to-use cytokine-supplemented methylcellulose H4034 kit (Stem Cell Technology, Meylan, France) at concentrations of 150 cells/[…] H4034 for day 4 and 300 cells/250

## Oc1ccc(C2Oc3ccc(/C=C/c4cc(O)cc5c4[C@H](c4cc(O)cc(O)c4)[C@@H](c4ccc(O)cc4)O5)cc3C2c2cc(O)cc3c2C(c2cc(O)cc(O)c2)C(c2ccc(O)cc2)O3)cc1 (stereo in doubt) [vitisin B, 5-[(2R,2'S,3R,3'S)-5-[(1E)-2-[(2S,3S)-3-(3,5-Dihydroxyphenyl)-2,3-dihydro-6-hydroxy-2-(4-hydroxyphenyl)-4-benzofuranyl]ethenyl]-2,2′,3,3′-tetrahydro-6′-hydroxy-2,2′-bis(4-hydroxyphenyl)[3,4′-bibenzofuran]-3′-yl]-1,3-benzenediol]
[1]
  cell proliferation from the transition to phase II: sharp increase
[2]; 10 μM, versus CTRL, FIG. 6A
  percentage of cells with the phenotype CD71negGPA+: increases
[2]; Days 0 to 11, 10 μM, versus CTRL, FIG. 5
  cell proliferation in phase I: similar
[2]; condition I: vitisin B 10 μM during phase I only, FIG. 5
  number of cells relative to the control condition (CTRL): 1.5 times
[2]; day 8 of culture, stated without distinguishing conditions
  cells expressing GPA: less than 20%
[2]; day 28, 10 μM (CTRL 40%), FIG. 6A
  cells expressing GPA: more than 50%
[2]; from Day 11, peak on day 21, 10 μM, conditions I, II, III, FIG. 5
  cell proliferation from the transition to phase II: sharp increase
[2]; vitisin B 10 μM in phase I, FIG. 6B
  absolute number of cells with the phenotype CD71negGPA+: increases
[3]; clonogenic assay at D4, D8, D11, FIG. 7A
  appearance of primitive erythrocyte progenitors (BFU-Es): accelerated the appearance
[3]; clonogenic assay at D4, D8, D11, FIG. 7B
  appearance of more differentiated progenitors (CFU-Es): accelerated the appearance
